The values below are quoted from earlier work in patent US8722101B2, “Use of iron(III) complex compounds” (Vifor (International) AG, priority 2005, dated 2014).

The conditions of this data set: children with iron-related anaemia; administration for 75 days.

For `O=S(=O)([O-])[O-].[Fe+2]` [iron sulfate], the “improvement in the mental and psychomotor development” value was “did not find any improvement”.
